# Experimental data reported in patent publication US11370786B2, “GLS1 inhibitors for treating disease” (Board of Regents, The University of Texas System, priority 2014, dated 2022).
# pEC50, pIC50: −log10 of the molar value.
# Test system: A549 cells
# Experiment: Proliferation Assay (A549 viability, Cell Titer Fluor, 72 hours)
# Format: cell-based
# Conditions: Homo sapiens, A549, 72 h
# Procedure: A549 cells were routinely maintained in RPMI 1640 media (Gibco catalog number 11875-093) supplemented with 10% dialyzed fetal bovine serum using a humidified incubator (37° C., 5% CO2 and ambient O2). In preparation for the viability assay, cells were inoculated into 384-well black CulturPlates (Perkin Elmer) at a density of 1000 cells/well in a volume of 40 uL. Following a 24-hour incubation at 37° C., 5% CO2 and ambient O2, cells were treated with compound ([…]) in a final DMSO concentration of 0.5% (v/v). The microplates were then incubated for 72 hours (37° C., 5% CO2 and ambient O2). Cell Titer Fluor (Promega) was subsequently added (10 uL of 6× reagent) and mixed for 15 minutes at room temperature. The plates were then incubated for 30 minutes (37° C., 5% CO2 and ambient O2) and fluorescence was subsequently read on the Perkin Elmer Envision plate reader. IC50 values were calculated using a four-parameter logistic curve fit.
row,SMILES,pEC50
1,"O=C(NCc1cccc(OC(F)(F)F)c1)c1cn(CCCCn2cc(C(=O)NCc3ccc(C(F)(F)F)cn3)nn2)nn1 [Example 81, 1-{4-[4-({[3-(trifluoromethoxy)phenyl]methyl}carbamoyl)-1H-1,2,3-triazol-1-yl]butyl}-N-{[5-(trifluoromethyl)pyridin-2-yl]methyl}-1H-1,2,3-triazole-4-carboxamide]",> 7.00
2,"O=C(NCc1cc(OC(F)(F)F)ccc1F)c1cn(CCC(F)Cn2cc(C(=O)NCc3ccccn3)nn2)nn1 (stereo not shown) [Example 369, 1-{2-fluoro-4-[4-({[2-fluoro-5-(trifluoromethoxy)phenyl]methyl}carbamoyl)-1H-1,2,3-triazol-1-yl]butyl}-N-(pyridin-2-ylmethyl)-1H-1,2,3-triazole-4-carboxamide]",> 7.00

# Biological target: GLS1 (purified recombinant human GAC) (Homo sapiens (Human), UniProt O94925)
# Sequence (O94925 other isoform, or with tags, fused parts or gaps): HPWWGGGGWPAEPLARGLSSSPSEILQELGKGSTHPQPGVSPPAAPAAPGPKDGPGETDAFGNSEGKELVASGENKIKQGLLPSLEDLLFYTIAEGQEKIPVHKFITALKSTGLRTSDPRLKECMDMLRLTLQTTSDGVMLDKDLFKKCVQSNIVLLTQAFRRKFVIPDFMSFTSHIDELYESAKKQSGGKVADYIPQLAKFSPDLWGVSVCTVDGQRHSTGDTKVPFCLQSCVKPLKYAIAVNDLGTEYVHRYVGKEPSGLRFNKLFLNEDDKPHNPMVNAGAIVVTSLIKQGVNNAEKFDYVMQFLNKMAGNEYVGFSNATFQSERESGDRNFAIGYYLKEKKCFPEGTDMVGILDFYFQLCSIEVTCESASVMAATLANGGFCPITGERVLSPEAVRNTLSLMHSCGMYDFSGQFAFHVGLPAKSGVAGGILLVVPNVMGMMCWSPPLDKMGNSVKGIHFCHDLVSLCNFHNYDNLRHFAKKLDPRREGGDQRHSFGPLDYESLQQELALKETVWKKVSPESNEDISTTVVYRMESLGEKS
# Experiment: GLS1 Enzymatic Activity Assay (dual-coupled glutamate oxidase/HRP Amplex UltraRed)
# Format: biochemical
# Conditions: not given
row,SMILES,pIC50
1,"CNC(=O)c1cn(CCCCc2ccc(NC(=O)Cc3cc(-c4cccc(OC(F)(F)F)c4F)ccn3)nn2)nn1 [Example 607, 1-(4-(6-(2-(4-(2-fluoro-3-(trifluoromethoxy)phenyl)pyridin-2-yl)acetamido)pyridazin-3-yl)butyl)-N-methyl-1H-1,2,3-triazole-4-carboxamide]",> 7.00
2,"CNC(=O)c1cn(CCCCc2ccc(NC(=O)Cc3cncc(OC4CC(F)(F)C4)c3)nn2)nn1 [Example 202, 1-(4-(6-(2-(5-(3,3-difluorocyclobutoxy)pyridin-3-yl)acetamido)pyridazin-3-yl)butyl)-N-methyl-1H-1,2,3-triazole-4-carboxamide]",> 7.00
3,"O=C(Cc1cncc(OC2CC(F)(F)C2)c1)Nc1ccc(CCCCn2cc(C(=O)NCc3ccccn3)nn2)nn1 [Example 231, 1-(4-(6-(2-(5-(3,3-difluorocyclobutoxy)pyridin-3-yl)acetamido)pyridazin-3-yl)butyl)-N-(pyridin-2-ylmethyl)-1H-1,2,3-triazole-4-carboxamide]",> 7.00
4,"CNC(=O)c1cn(CCCCc2ccc(NC(=O)Cc3cc(C4CC4)ccn3)nn2)nn1 [Example 190, 1-(4-{6-[2-(4-cyclopropylpyridin-2-yl)acetamido]pyridazin-3-yl}butyl)-N-methyl-1H-1,2,3-triazole-4-carboxamide]",> 7.00
5,"CNC(=O)c1cn(CC(F)CCc2ccc(NC(=O)Cc3cc(OC(C)C(F)(F)F)ccn3)nn2)nn1 (stereo not shown) [Example 266, 1-(2-fluoro-4-(6-(2-(4-((1,1,1-trifluoropropan-2-yl)oxy)pyridin-2-yl)acetamido)pyridazin-3-yl)butyl)-N-methyl-1H-1,2,3-triazole-4-carboxamide]",> 7.00
6,"CNC(=O)c1cn(CCCCc2ccc(NC(=O)Cc3cc(-c4cc(F)ccc4C)ccn3)nn2)nn1 [Example 609, 1-(4-(6-(2-(4-(5-fluoro-2-methylphenyl)pyridin-2-yl)acetamido)pyridazin-3-yl)butyl)-N-methyl-1H-1,2,3-triazole-4-carboxamide]",> 7.00
7,"CNC(=O)c1cn(CCCCc2ccc(NC(=O)Cc3cc(-c4cccc(Cl)c4OC(F)(F)F)ccn3)nn2)nn1 [Example 608, 1-(4-(6-(2-(4-(3-chloro-2-(trifluoromethoxy)phenyl)pyridin-2-yl)acetamido)pyridazin-3-yl)butyl)-N-methyl-1H-1,2,3-triazole-4-carboxamide]",> 7.00
8,"CNC(=O)c1cn(CCCCc2ccc(NC(=O)Cc3cc(Cl)ccn3)nn2)nn1 [Example 191, 1-(4-{6-[2-(4-chloropyridin-2-yl)acetamido]pyridazin-3-yl}butyl)-N-methyl-1H-1,2,3-triazole-4-carboxamide]",> 7.00
9,"O=C(Cc1cncc(OC2CC(F)(F)C2)c1)Nc1ccc(CCCCn2cc(C(=O)NCc3cc(C(F)(F)F)ccn3)nn2)nn1 [Example 230, 1-(4-(6-(2-(5-(3,3-difluorocyclobutoxy)pyridin-3-yl)acetamido)pyridazin-3-yl)butyl)-N-((4-(trifluoromethyl)pyridin-2-yl)methyl)-1H-1,2,3-triazole-4-carboxamide]",> 7.00
10,"CNC(=O)c1cn(CCCCc2ccc(NC(=O)Cc3cncc(Br)c3)nn2)nn1 [Example 546, 1-(4-{6-[2-(5-bromopyridin-3-yl)acetamido]pyridazin-3-yl}butyl)-N-methyl-1H-1,2,3-triazole-4-carboxamide]",> 7.00
11,"CNC(=O)c1cn(CCCCc2ccc(NC(=O)Cc3cc(Br)ccn3)nn2)nn1 [Example 200, 1-(4-(6-(2-(4-bromopyridin-2-yl)acetamido)pyridazin-3-yl)butyl)-N-methyl-1H-1,2,3-triazole-4-carboxamide]",> 7.00
12,"CNC(=O)c1cn(CCCCc2ccc(NC(=O)Cc3cc(-c4ccc(F)cc4C(F)(F)F)ccn3)nn2)nn1 [Example 606, 1-(4-(6-(2-(4-(4-fluoro-2-(trifluoromethyl)phenyl)pyridin-2-yl)acetamido)pyridazin-3-yl)butyl)-N-methyl-1H-1,2,3-triazole-4-carboxamide]",> 7.00
13,"CNC(=O)c1cn(CCCCc2ccc(NC(=O)Cc3ccc(Cl)nc3)nn2)nn1 [Example 544, 1-(4-{6-[2-(6-chloropyridin-3-yl)acetamido]pyridazin-3-yl}butyl)-N-methyl-1H-1,2,3-triazole-4-carboxamide]",> 7.00
14,"O=C(Cc1ccccn1)Nc1ccc(CCCCn2cc(C(=O)NCc3cc(C(F)(F)F)ccn3)nn2)nn1 [Example 203, 1-(4-(6-(2-(pyridin-2-yl)acetamido)pyridazin-3-yl)butyl)-N-((4-(trifluoromethyl)pyridin-2-yl)methyl)-1H-1,2,3-triazole-4-carboxamide]",> 7.00
